The values below come from paper PMC4914440 (Pharmacological research, 2016).

For one series, the target named is h5-HT7 (Homo sapiens, UniProt P34969). In words: Radioligand displacement by a fixed drug concentration, [3H]LSD. The settings on record: 10 μM efavirenz. For orientation: In a radioligand displacement assay an active substance lowers the binding of a labelled ligand.
The target of the next series is MAO-A (Homo sapiens, UniProt P21397). In words: Inhibition of monoamine oxidase A activity, kynuramine substrate. In kind it is biochemical. The conditions noted are these: 10 μM.
For series [1], the target named is T1, 5-HT2A receptor (Homo sapiens, UniProt P28223). The experiment in a line: Intracellular calcium assay of Gq signaling, HEK293 cells. In kind it is cell-based. On the technique in general: A change in cytosolic calcium serves as a functional read-out for many receptors and channels.
In series [2] the test system is serotonin transporter (SERT). The conditions noted are these: 10 μM; cited from earlier work.
The conditions of series [3]: cited from earlier work.
Series [4] deals with T1, 5-HT2A receptor. In words: Competition radioligand binding, concentration-response.
The test system of a further series is dopamine receptors. The conditions noted are these: 10 μM; cited from earlier work.
The next series deals with M1 muscarinic receptor (Homo sapiens, UniProt P11229).
For series [5] the following is noted: cited from earlier work. The source holds these as a separate data set.
Series [6] deals with endogenous β-adrenergic receptor. In words: cAMP-Glo assay, untransfected HeLa cells stimulated with. It counts as cell-based, human.
For series [7] the following is noted: cited from earlier work. The source holds these as a separate data set.
The conditions of series [8]: within 1 hr of i.p. dose of 15 mg/kg; cited from earlier work.
Another series concerns h5-HT1A. The settings on record: 10 μM efavirenz; cited from earlier work.

The structures appear in SMILES notation. Where “and” joins values, the source holds several entries; their conditions need not be identical. Identical values can stand only once.

T1 sequence (P28223 whole entry): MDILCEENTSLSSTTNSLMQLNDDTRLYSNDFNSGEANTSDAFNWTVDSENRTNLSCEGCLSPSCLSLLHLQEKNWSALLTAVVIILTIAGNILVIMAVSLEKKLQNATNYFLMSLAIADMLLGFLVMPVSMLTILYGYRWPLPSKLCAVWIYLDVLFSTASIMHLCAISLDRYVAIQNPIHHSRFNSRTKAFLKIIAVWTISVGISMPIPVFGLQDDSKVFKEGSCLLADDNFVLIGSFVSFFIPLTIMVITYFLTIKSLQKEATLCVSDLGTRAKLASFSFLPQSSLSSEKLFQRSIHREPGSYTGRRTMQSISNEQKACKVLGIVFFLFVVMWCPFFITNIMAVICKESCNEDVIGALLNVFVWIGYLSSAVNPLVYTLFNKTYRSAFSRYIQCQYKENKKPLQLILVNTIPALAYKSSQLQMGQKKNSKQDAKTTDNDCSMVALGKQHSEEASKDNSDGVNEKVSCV
Sequence of M1 muscarinic receptor (P11229 whole entry): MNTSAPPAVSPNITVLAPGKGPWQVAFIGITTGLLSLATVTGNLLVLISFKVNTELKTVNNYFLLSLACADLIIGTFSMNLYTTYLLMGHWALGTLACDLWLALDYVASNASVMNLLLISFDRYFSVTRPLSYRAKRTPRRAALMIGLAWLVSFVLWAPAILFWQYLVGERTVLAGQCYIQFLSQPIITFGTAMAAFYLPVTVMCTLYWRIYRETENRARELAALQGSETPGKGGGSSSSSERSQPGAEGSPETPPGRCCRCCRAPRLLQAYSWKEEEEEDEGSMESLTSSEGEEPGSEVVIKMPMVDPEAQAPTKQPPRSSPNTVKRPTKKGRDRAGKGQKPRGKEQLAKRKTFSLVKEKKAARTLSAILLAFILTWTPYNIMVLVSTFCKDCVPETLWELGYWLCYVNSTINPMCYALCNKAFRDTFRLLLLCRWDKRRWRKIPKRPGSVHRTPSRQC
Sequence of h5-HT7 (P34969 whole entry): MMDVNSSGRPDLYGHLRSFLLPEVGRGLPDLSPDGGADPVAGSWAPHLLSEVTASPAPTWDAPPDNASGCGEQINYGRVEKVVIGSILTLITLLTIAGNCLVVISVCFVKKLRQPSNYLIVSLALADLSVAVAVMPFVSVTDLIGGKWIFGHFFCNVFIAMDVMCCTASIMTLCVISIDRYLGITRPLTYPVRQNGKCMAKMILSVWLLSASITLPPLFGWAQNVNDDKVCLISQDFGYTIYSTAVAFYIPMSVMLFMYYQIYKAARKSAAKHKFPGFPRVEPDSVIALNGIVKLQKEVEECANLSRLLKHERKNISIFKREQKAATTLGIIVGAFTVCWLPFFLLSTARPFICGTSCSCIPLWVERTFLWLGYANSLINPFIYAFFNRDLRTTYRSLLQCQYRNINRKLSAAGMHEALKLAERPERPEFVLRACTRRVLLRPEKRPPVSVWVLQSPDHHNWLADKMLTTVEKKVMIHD
Sequence of MAO-A (P21397 whole entry): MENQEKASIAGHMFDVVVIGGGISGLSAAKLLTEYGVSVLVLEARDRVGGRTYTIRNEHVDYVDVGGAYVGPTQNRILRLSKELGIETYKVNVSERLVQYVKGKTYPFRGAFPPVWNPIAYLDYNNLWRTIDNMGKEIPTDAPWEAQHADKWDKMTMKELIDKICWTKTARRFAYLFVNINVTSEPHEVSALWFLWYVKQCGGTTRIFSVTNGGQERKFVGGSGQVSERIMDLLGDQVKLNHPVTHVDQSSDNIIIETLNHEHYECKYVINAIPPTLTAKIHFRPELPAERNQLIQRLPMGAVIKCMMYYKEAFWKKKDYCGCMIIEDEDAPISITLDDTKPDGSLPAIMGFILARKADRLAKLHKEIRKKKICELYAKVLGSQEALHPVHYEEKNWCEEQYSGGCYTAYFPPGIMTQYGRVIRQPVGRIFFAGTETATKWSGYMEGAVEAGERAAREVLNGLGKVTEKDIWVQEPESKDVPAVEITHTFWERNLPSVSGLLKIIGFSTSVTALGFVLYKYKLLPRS

As a reminder, the Ki is the equilibrium dissociation constant of an inhibitor or competing ligand from its target. Read a low Ki as tighter binding. Turning to `O=C1Nc2ccc(Cl)cc2[C@@](C#CC2CC2)(C(F)(F)F)O1` [efavirenz, (4S)-6-chloro-4-(2-cyclopropylethynyl)-4-(trifluoromethyl)-2,4-dihydro-1H-3,1-benzoxazin-2-one], the “interaction (radioligand displacement)” value on h5-HT7 and in the series on h5-HT1A was “less pronounced or no detectable interaction” in each case. The “decrease of MAO-A activity” value on MAO-A was 36 ± 1.7%. Further, on 5-HT2A receptor [1] (30 μM antagonist), the “inhibition of agonist responses (5-HT, TCB-2, α-Me-5HT)” value is listed as “significant inhibition”. In addition, the figures for the Schild plot slope at 5-HT2A receptor [1] ((±)-DOI as agonist) and on 5-HT2A receptor [1] (LSD as agonist) were 1.06 ± 0.054 and 1.2 ± 0.16, respectively. Also, the “effect on serotonin reuptake” value in [2] is reported as “blocks reuptake of serotonin”. Moreover, in [3], the “novel open field locomotor activity” value was “dose-dependently depressed novel open field locomotor activity”. Further, the inhibition constant Ki on 5-HT2A receptor [4] (affinity (Ki), [3H]MSP competition) was 4.4 µM and 4.37 µM. In addition, the “pseudo Hill slope” value at 5-HT2A receptor [4] (competition binding) is recorded as −1.39 ± −0.18. Further, the interaction result with dopamine receptors is recorded as “did not have significant interactions”. The “stimulation of Gq-coupling alone” value at M1 muscarinic receptor was “fails to stimulate”. In addition, the “concentration suppressing the carbachol Gq response” value at M1 muscarinic receptor (EC50 concentration of carbachol) is at least 10 µM. For the same molecule, in series [5] (large clinical studies, 1008 patients), the incidence of hallucinations was 1.2%. For the same molecule, the frequency of hallucinations in [5] (three clinical studies, 114–197 patients each) was 6–31%. For the same molecule, the “effect on (−)-epinephrine stimulated cAMP response” value in [6] is “failed to significantly modulate”. The “mean concentration in CSF” value in series [7] (across studies) is reported as “approximately 44 nM”. In addition, in [7], the “CSF levels as % of plasma concentrations” value was 0.52%. Also, the “brain levels relative to plasma levels” value in series [8] is given as “exceed 4.6 times”.
